TGI and GI50 data for 17 compounds are collected here from PubChem BioAssay (NCI).

Some test systems named below: NCI-H23 lung; SF-539 CNS; MOLT-4 leukemia; UACC-62 melanoma; ACHN renal; HS 578T breast; MCF7 breast; HL-60(TB) leukemia; SR leukemia; NCI/ADR-RES ovarian.
What all share (test): growth of human tumour cells (NCI), 48 h

Molecules are shown by their SMILES. Where “and” joins values, the source holds several entries; their conditions need not be identical. Equal values may be shown once.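 Growth conditions: 96-well plates. Treatment: test compound, 48 hours, 5 concentrations. Analysis: linear interpolation between bracketing concentrations; unreached endpoints set to highest concentration. Here, GI50 denotes the concentration required for 50% inhibition of growth. TGI denotes the concentration required for complete inhibition of growth.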

As to `COc1cc(CNc2ccc(C(C)C)cc2)cc(OC)c1OC`, the TGI worked out at 45.5 µM in the test on NCI-H23 lung; 35.8 µM in the test on SF-539 CNS; 73 µM in the test on MOLT-4 leukemia; 33 µM in the test with UACC-62 melanoma; 60.1 µM in the test with ACHN renal.
`CCCCCCCCCCCCCC(=O)CBr`: the TGI with HS 578T breast was 52.4 µM; in the test on NCI-H23 lung, 23 µM; in the test on SF-539 CNS, 30.7 µM; in the test on MOLT-4 leukemia it was 2.9 µM; with UACC-62 melanoma, 17.9 µM; in the test on ACHN renal, 30.1 µM. Also, the results for the TGI in the test with MCF7 breast and with HL-60(TB) leukemia were 30.2 µM and 3.08 µM, respectively.
Consider `O=C(CN1CCN(c2ccccc2)CC1)N1CCc2c([nH]c3ccccc23)C1c1cccnc1` (stereo not drawn), for which the TGI was > 85.3 µM in the test on NCI-H23 lung; 57.8 µM in the test with SF-539 CNS; > 100 µM with MOLT-4 leukemia; > 100 µM in the test on SR leukemia; > 100 µM with UACC-62 melanoma; > 100 µM with ACHN renal. In the test on HL-60(TB) leukemia, the TGI is > 100 µM.
For `COc1ccc(NC(=O)c2cc(OC)c(OC)c(OC)c2)cc1`, the TGI in the test with NCI-H23 lung is > 91.9 µM; with SF-539 CNS, > 100 µM; in the test with MOLT-4 leukemia it was > 100 µM; in the test with UACC-62 melanoma, > 100 µM; in the test on ACHN renal it was > 100 µM; in the test with HL-60(TB) leukemia, 68 µM.
In the case of `CC(C)CC1=[N+]=C(NC#N)N=C(CCC(=O)Nc2ccccc2[N+](=O)[O-])C1`, the TGI in the test with NCI-H23 lung, in the test on SF-539 CNS, in the test with MOLT-4 leukemia, with SR leukemia, with UACC-62 melanoma and in the test with ACHN renal was > 100 µM each time. Moreover, the TGI in the test with HL-60(TB) leukemia was > 100 µM.
As to `COc1cccc(C2c3cc4c(cc3OC(O)(CO)C2C(=O)O)OCO4)c1` (stereo not drawn) (tested in a mixture with another compound), the TGI with NCI-H23 lung, with SF-539 CNS, with MOLT-4 leukemia, in the test with SR leukemia, in the test with UACC-62 melanoma and in the test on ACHN renal was > 100 µM throughout. Moreover, the TGI in the test with HL-60(TB) leukemia is 75.4 µM.
With `CC1C(=O)C(C)C(c2ccccc2)N(N=O)C1c1ccccc1` (stereo not drawn), the GI50 was 28.6 µM in the test with HS 578T breast, 332 µM with NCI-H23 lung and > 50.3 µM in the test on SF-539 CNS. The TGI in the test on HS 578T breast was 186 µM; in the test with NCI/ADR-RES ovarian, 867 µM; in the test on NCI-H23 lung, > 779 µM; with SF-539 CNS, > 79 µM and 310 µM; in the test on MOLT-4 leukemia it was > 1000 µM; with SR leukemia, > 1000 µM. Besides, the TGI in the test on UACC-62 melanoma is > 655 µM; in the test on ACHN renal it was 341 µM; with HL-60(TB) leukemia, > 1000 µM.
Consider `CCCCCCCCCCCCCCCCCCCCCC(=O)Nc1ccn(C2OC(CO)C(O)C2O)c(=O)n1` (stereo not drawn), for which the TGI with NCI-H23 lung was > 100 µM; with SF-539 CNS, > 100 µM; in the test on MOLT-4 leukemia, > 37.1 µM; in the test with SR leukemia, 26.8 µM; in the test on UACC-62 melanoma it was > 100 µM; in the test with ACHN renal, > 82.6 µM. Also, the TGI in the test on HL-60(TB) leukemia was > 100 µM.
For the compound `Cc1cccc(C(C)C)c1NC(=O)C(=O)CC(=O)c1c(C)n([O-])c2ccccc2[n+]1=O`, the TGI in the test on NCI-H23 lung was 51.3 µM; in the test with SF-539 CNS it was 83.8 µM; in the test with MOLT-4 leukemia, 59.8 µM; with SR leukemia, 78.5 µM; with UACC-62 melanoma it was 42.4 µM; with ACHN renal, > 100 µM. Besides, the TGI with HL-60(TB) leukemia was > 100 µM.
As for `CC(=O)Oc1ccc(O)c(O)c1C/C=C(\C)CC/C=C(\C)CC/C=C(\C)CCC=C(C)C`, the TGI in the test on NCI-H23 lung was determined as 1.47 µM; with SF-539 CNS, 1.62 µM; with ACHN renal, 0.823 µM; in the test on HL-60(TB) leukemia, 4.11 µM.
As for `COc1ccc(O)c(C#N)c1C#N`, the TGI with NCI-H23 lung, in the test on SF-539 CNS, in the test on MOLT-4 leukemia, in the test with UACC-62 melanoma, in the test on ACHN renal and in the test with HL-60(TB) leukemia was > 100 µM in each case.
For the compound `Cc1nc2sc(C(=O)Nc3ccccc3)c(N)c2cc1C(=O)/C=C/c1ccccc1`, the GI50 in the test on HS 578T breast was 2.79 µM; in the test with NCI-H23 lung, 2.2 µM; with SF-539 CNS, 1.88 µM; with MOLT-4 leukemia it was 2.91 µM; with SR leukemia, 1.38 µM; in the test with UACC-62 melanoma, 1.64 µM. Further, the GI50 was 1.81 µM with ACHN renal, 1.53 µM in the test on MCF7 breast and 2.03 µM with HL-60(TB) leukemia. Besides, the TGI is > 100 µM in the test with HS 578T breast; 5.44 µM in the test with NCI-H23 lung; 3.56 µM in the test with SF-539 CNS; 76.1 µM in the test on MOLT-4 leukemia; 11.7 µM in the test on SR leukemia; 3.45 µM with UACC-62 melanoma. The figures for the TGI with ACHN renal, with MCF7 breast and in the test on HL-60(TB) leukemia were 3.45 µM, 5.51 µM and 4.83 µM, respectively.
Take `CC/C=C\C/C=C\C/C=C\CCCCCCCC(=O)OCC`: the TGI in the test on NCI-H23 lung, in the test on SF-539 CNS, with MOLT-4 leukemia, in the test on SR leukemia, with UACC-62 melanoma and in the test on ACHN renal was > 100 µM each time. The TGI in the test on HL-60(TB) leukemia is > 100 µM.
`CCCCCCCCCc1cc(=O)c2ccc(O)cc2o1`: the TGI in the test on NCI-H23 lung, with SF-539 CNS, in the test with MOLT-4 leukemia, with SR leukemia, in the test with UACC-62 melanoma and in the test with ACHN renal was > 100 µM throughout. The TGI in the test with HL-60(TB) leukemia was 38.2 µM.
For `CSc1nc2c(nc(N)n2C2OCC(O)C(O)C2O)c(=O)n1C` (stereo not drawn), the TGI in the test on NCI-H23 lung, in the test with SF-539 CNS, in the test on MOLT-4 leukemia, in the test with SR leukemia, in the test on UACC-62 melanoma and in the test with ACHN renal was > 100 µM in each case. Moreover, the TGI in the test on HL-60(TB) leukemia is > 100 µM.
For `Cn1nc(-c2ccccc2)c(C(=O)/C=C/c2ccccc2)c(N2CCOCC2)c1=O`, the TGI with NCI-H23 lung was 45.1 µM; in the test on SF-539 CNS, 39.5 µM; in the test with MOLT-4 leukemia it was 49.4 µM; in the test on UACC-62 melanoma, 52.9 µM; in the test on ACHN renal, 39.9 µM; with HL-60(TB) leukemia, 32.3 µM.
Regarding `CCOC(=O)NN1C(=O)C(=P(c2ccccc2)(c2ccccc2)c2ccccc2)C(C(=O)OCC)=C1C`, the TGI in the test on NCI-H23 lung, in the test with SF-539 CNS, with MOLT-4 leukemia, in the test with SR leukemia, with UACC-62 melanoma and in the test on ACHN renal was > 100 µM each time. Moreover, the TGI in the test on HL-60(TB) leukemia is > 100 µM.
